From patent US10899732B2, “Substituted benzamides useful as sodium channel blockers” (GENENTECH, INC., priority 2015, dated 2021)
Structures can show the parent of a compound that is named as a salt.

Legend:
NaV1.7 = target: T1, NaV1.7 (Homo sapiens, UniProt Q15858); test: Patch voltage clamp electrophysiology assay (EP), NaV1.7 in HEK-293 cells; type: cell-based; details: HEK-293, β1 coexpressed, held at -60 mV (inactivated state)
T1 construct: expression vector containing the full-length cDNA coding for the desired human sodium channel α-subunit; expressed in transfected cells; host or cells: HEK-293
T1 sequence (Q15858 1-1977 isoform Q15858-3): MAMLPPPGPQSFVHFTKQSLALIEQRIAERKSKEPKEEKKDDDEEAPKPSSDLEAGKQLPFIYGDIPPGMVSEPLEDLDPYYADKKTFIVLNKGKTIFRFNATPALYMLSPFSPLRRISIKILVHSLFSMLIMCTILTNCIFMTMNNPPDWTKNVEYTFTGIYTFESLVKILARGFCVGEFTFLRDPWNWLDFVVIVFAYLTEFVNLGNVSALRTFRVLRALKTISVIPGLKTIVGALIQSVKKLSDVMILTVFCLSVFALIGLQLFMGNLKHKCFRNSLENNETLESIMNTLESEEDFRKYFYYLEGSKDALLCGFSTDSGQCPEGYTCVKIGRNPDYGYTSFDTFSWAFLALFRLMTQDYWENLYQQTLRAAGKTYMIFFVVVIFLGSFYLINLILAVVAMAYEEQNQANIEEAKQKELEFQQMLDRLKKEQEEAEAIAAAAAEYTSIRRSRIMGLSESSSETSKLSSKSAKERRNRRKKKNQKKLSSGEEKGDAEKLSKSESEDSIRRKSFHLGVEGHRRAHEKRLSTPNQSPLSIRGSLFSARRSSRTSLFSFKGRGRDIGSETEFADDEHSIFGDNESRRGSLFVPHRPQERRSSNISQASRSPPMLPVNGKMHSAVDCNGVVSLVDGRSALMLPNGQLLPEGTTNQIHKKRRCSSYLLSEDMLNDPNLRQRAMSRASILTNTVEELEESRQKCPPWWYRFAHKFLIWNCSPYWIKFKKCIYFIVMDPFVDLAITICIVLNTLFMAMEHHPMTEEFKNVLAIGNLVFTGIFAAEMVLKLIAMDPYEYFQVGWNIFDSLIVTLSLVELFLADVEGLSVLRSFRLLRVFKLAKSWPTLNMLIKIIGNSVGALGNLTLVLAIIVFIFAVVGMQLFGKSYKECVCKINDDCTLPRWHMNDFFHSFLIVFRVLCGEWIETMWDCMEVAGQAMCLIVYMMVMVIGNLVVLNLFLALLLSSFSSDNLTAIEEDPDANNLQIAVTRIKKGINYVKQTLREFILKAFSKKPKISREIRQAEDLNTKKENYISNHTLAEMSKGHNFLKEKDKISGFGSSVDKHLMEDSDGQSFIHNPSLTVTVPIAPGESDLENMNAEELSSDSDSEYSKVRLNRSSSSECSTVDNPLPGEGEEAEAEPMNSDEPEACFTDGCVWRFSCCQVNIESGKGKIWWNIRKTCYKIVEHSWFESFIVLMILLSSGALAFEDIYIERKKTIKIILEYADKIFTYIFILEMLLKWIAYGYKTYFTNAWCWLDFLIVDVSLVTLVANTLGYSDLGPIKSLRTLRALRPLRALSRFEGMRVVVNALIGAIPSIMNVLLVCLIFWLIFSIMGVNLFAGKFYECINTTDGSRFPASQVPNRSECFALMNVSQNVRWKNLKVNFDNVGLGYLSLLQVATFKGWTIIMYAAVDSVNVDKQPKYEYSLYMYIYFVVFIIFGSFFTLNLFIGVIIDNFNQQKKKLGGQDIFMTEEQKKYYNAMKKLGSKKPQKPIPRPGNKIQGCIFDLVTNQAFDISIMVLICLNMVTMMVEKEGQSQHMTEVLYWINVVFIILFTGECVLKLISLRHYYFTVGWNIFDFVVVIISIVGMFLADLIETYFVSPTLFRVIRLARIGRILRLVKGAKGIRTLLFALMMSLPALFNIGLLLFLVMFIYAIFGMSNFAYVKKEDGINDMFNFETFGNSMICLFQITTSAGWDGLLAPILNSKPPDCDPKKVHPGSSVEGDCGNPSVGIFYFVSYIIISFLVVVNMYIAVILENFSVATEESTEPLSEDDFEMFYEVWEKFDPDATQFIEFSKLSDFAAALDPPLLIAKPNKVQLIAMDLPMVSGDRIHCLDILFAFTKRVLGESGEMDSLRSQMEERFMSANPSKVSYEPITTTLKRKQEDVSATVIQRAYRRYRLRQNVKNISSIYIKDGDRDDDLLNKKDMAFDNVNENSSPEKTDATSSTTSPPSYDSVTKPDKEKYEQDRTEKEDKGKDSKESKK
T1 sequence (Q07699 19-218 partner): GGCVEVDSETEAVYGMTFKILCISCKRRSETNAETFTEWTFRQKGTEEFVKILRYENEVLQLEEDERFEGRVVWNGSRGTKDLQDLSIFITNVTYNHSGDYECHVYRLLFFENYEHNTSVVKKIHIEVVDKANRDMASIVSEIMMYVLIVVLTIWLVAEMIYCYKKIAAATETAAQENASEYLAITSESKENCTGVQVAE
Text: (§1) Electrophysiological Assay (EP) (In Vitro Assay)
(§2) Patch voltage clamp electrophysiology allows for the direct measurement and quantification of block of voltage-gated sodium channels (NaV's), and allows the determination of the time- and voltage-dependence of block which has been interpreted as differential binding to the resting, open, and inactivated states of the sodium channel (Hille, B., Journal of General Physiology (1977), 69: 497-515).
(§3) The following patch voltage clamp electrophysiology studies were performed on representative compounds of the invention using human embryonic kidney cells (HEK), permanently transfected with an expression vector containing the full-length cDNA coding for the desired human sodium channel α-subunit, grown in culture media containing 10% FBS, 1% PSG, and 0.5 mg/mL G418 at 37° C. with 5% CO2. […] NaV1.7 and NaV1.5 cDNAs (NM_002977 and AC137587; SCN5A, respectively) were stably expressed in HEK-293 cells. The β1 subunit was coexpressed in both the NaV1.7 and NaV1.5 cell lines.
(§4) Sodium currents were measured using the patch clamp technique in the whole-cell configuration using either a PatchXpress automated voltage clamp or manually using an Axopatch 200B (Axon Instruments) or Model 2400 (A-M systems) amplifier. The manual voltage clamp protocol was as follows: Borosilicate glass micropipettes were fire-polished to a tip diameter yielding a resistance of 2-4 Mohms in the working solutions. The pipette was filled with a solution comprised of: 5 mM NaCl, 10 mM CsCl, 120 mM CsF, 0.1 mM CaCl2, 2 mM MgCl2, 10 mM HEPES, 10 mM EGTA; and adjusted to pH 7.2 with CsOH. The external solution had the following composition: 140 mM NaCl, 5 mM KCl, 2 mM CaCl2, 1 mM MgCl2, 10 mM HEPES; and adjusted to pH 7.4 with NaOH. In some studies, the external sodium was reduced by equimolar replacement with choline. Osmolarity in the CsF internal and NaCl external solutions was adjusted to 300 mOsm/kg and 310 mOsm/kg with glucose, respectively. All recordings were performed at ambient temperature in a bath chamber with a volume of 150 μL. Control sodium currents were measured in 0.5% DMSO. Controls and representative compounds of the invention were applied to the recording chamber through a 4-pinch or 8-pinch valve bath perfusion system manufactured by ALA Scientific Instruments.
(§5) Currents were recorded at 40 kHz sampling frequency, filtered at […], and stored using a Digidata-1322A analogue/digital interface with the pClamp software (Axon Instruments). Series resistance compensation was applied (60-80%). […] All statistics in this study are given as mean±SD.
(§6) The membrane potential was maintained at a voltage where inactivation of the channel is complete (which was −60 mV for both NaV1.7 and NaV1.5). The voltage is then stepped back to a very negative (Vhold=[…]) voltage for 20 ms and then a test pulse is applied to quantify the compound block. The 20 ms brief repolarization was long enough for compound-free channels to completely recover from fast inactivation, but the compound-bound channels recovered more slowly such that negligible recovery could occur during this interval. The percent decrease in sodium current following wash-on of compound was taken as the percent block of sodium channels.

hNav1.7 = target: T2, hNav1.7 (Homo sapiens, UniProt Q15858); test: Tritiated sulfonamide competitive binding to membranes from cells expressing hNav1.7 and the β1 subunit (LBA); details: competition with 100 pM [3H]compound, 18 h, room temperature; read-out: Nav1.7 (LBA)
T2 construct: expressed in transfected cells
T2 sequence (Q15858 1-1977 isoform Q15858-3): as the sequence (Q15858 1-1977 isoform Q15858-3) above
T2 sequence (Q07699 19-218 partner): as the sequence (Q07699 19-218 partner) above
Method: Tritiated Sulfonamide Binding to Membranes Isolated from Cells that Heterologously Express hNav1.7 and the β1 Subunit
Preparation of membranes containing recombinantly expressed sodium channels: Frozen recombinant cell pellets were thawed on ice and diluted to 4 times the cell pellet weight with ice cold 50 mM Tris HCl, pH 7.4 buffer. The cell suspensions were homogenized on ice using a motorized glass dounce homogenizer. Homogenates were further diluted 8.4 times with ice cold 50 mM Tris HCl, pH 7.4 buffer and then centrifuged at 200×g at 4° C. for 15 min. The supernatants were collected and centrifuged at 10000×g at 4° C. for 50 min. The pellets were then re-suspended in 100 mM NaCl, 20 mM Tris HCl, pH 7.4 buffer containing 1% v/v protease inhibitors (Calbiochem) and re-homogenized on ice. The homogenized membranes were then processed through a syringe equipped with a 26 gauge needle. Protein concentrations were determined by Bradford Assay and the membranes were stored at −80° C.
Saturation experiments. A competitive NaV1.7 inhibitor having a methyl group was tritiated. Three tritiums were incorporated in place of methyl hydrogens to generate [^3H]compound. Binding of this radioligand was preformed in 5 mL borosilicate glass test tubes at room temperature. Binding was initiated by adding membranes to increasing concentrations of [^3H]compound in 100 mM NaCl, 20 mM Tris HCl, pH 7.4 buffer containing 0.01% w/v bovine serum albumin (BSA) for 18 h. Non-specific binding was determined in the presence of 1 μM unlabelled compound. After 18 h, the reactants were filtered through GF/C glass fiber filters presoaked in 0.5% w/v polyethylene imine. Filters were washed with 15 mL ice cold 100 mM NaCl, 20 mM Tris HCl, pH 7.4 buffer containing 0.25% BSA to separate bound from free ligand. [^3H]compound bound to filters was quantified by liquid scintillation counting.
Binding reactions were performed in 96-well polypropylene plates at room temperature for 18 h. In 360 μL, membranes were incubated with 100 pM [^3H]compound and increasing concentrations of Test Compound. Non-specific binding was defined in the presence of 1 μM unlabelled compound. Reactions were transferred and filtered through 96-well glass fiber/C filter plates presoaked with 0.5% polyethylene imine. The filtered reactions were washed 5 times with 200 μL ice cold buffer containing 0.25% BSA. Bound radioactivity was determined by liquid scintillation counting.
Data Analysis: For saturation experiments, non-specific binding was subtracted from total binding to provide specific binding and these values were recalculated in terms of pmol ligand bound per mg protein. Saturation curves were constructed and dissociation constants were calculated using the single site ligand binding model: Beq=(Bmax*X)/(X+Kd), where Beq is the amount of ligand bound at equilibrium, Bmax is the maximum receptor density, Kd is the dissociation constant for the ligand, and X is the free ligand concentration. For competition studies percent inhibition was determined and IC50 values were calculated using a 4 parameter logistic model (% inhibition=(A+((B−A)/(1+((x/C)^D)))) using XLfit, where A and B are the maximal and minimum inhibition respectively, C is the IC50 concentration and D is the (Hill) slope.

NaV1.5 = target: T3, NaV1.5 (Homo sapiens, UniProt Q14524); test: Patch voltage clamp electrophysiology assay (EP), NaV1.5 in HEK-293 cells; type: cell-based; details: HEK-293, β1 coexpressed, held at -60 mV (inactivated state)
T3 construct: expression vector containing the full-length cDNA coding for the desired human sodium channel α-subunit; expressed in transfected cells; host or cells: HEK-293
T3 sequence (Q14524 whole entry): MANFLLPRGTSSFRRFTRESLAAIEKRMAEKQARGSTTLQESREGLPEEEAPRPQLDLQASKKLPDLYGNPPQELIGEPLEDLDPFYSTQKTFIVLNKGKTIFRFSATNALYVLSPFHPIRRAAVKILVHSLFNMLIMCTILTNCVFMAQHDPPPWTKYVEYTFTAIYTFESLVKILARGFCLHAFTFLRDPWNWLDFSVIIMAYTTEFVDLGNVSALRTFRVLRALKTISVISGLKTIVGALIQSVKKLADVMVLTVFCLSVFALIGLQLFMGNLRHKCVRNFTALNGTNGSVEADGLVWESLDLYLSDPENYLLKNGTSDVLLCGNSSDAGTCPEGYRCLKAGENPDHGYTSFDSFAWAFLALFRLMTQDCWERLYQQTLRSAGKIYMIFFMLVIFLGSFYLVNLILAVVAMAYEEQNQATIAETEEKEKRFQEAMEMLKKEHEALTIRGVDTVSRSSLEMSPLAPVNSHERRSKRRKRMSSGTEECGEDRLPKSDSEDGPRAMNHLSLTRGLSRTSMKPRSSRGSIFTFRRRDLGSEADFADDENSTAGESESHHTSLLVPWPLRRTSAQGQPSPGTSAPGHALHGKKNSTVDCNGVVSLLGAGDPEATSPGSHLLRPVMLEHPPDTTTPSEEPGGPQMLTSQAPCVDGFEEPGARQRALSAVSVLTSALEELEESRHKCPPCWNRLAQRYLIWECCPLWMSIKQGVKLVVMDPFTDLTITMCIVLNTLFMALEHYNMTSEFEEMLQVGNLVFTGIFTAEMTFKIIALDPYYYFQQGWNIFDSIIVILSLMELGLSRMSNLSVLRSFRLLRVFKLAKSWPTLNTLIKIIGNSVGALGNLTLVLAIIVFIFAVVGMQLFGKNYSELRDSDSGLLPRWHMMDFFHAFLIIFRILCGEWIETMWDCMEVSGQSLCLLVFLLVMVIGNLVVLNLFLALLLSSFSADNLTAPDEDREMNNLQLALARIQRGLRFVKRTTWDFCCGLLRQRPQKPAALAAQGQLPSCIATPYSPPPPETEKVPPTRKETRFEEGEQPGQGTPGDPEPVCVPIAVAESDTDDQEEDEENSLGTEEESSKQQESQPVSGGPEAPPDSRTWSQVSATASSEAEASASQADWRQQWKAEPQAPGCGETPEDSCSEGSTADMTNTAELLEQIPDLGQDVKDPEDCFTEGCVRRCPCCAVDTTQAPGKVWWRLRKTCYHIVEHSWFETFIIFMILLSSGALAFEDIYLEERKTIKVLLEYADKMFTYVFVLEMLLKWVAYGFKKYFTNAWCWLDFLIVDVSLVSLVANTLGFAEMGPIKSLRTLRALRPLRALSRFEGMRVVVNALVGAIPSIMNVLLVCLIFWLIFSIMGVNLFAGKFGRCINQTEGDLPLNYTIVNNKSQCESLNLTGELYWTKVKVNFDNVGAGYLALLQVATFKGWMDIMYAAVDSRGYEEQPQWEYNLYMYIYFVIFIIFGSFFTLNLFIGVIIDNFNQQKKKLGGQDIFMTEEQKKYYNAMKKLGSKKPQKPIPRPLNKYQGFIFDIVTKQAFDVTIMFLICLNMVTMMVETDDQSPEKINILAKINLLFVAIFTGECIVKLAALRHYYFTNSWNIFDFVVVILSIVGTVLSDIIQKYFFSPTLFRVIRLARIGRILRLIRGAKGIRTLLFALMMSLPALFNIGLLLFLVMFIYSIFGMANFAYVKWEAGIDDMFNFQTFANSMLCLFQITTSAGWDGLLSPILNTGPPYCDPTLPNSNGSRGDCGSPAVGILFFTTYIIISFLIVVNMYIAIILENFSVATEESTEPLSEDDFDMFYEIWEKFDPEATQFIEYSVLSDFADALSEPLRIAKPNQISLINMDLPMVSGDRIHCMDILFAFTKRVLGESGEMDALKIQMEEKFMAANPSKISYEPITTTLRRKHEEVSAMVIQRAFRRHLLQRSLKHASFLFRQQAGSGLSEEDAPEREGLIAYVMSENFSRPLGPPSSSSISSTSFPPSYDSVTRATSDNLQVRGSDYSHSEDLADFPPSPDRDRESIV
Text: as §1, §2, §3, §4, §5, §6

| SMILES | IC50 (NaV1.7) [nM] | IC50 (hNav1.7) [nM] | IC50 (NaV1.5; human, pH 7.4) [nM] | IC50 (NaV1.5) [nM] |
| --- | --- | --- | --- | --- |
| Cc1nn([C@@H]2CCN(C(=O)c3cc(Cl)cc(Cl)c3)C2)c2cc(F)c(C(=O)NS(=O)(=O)C3CC3)cc12 [Example 21, (R)-N-(cyclopropylsulfonyl)-1-(1-(3,5-dichlorobenzoyl)pyrrolidin-3-yl)-6-fluoro-3-methyl-1H-indazole-5-carboxamide] | 4000 | 1500 | ≥ 30000 |  |
| Cc1nn([C@@H]2CCN([C@H](C)c3cc(Cl)cc(OC(F)(F)F)c3)C2)c2cc(F)c(C(=O)NS(=O)(=O)C3CC3)cc12 [Example 22, 1-((R)-1-((R)-1-(3-chloro-5-(trifluoromethoxy)phenyl)ethyl)pyrrolidin-3-yl)-N-(cyclopropylsulfonyl)-6-fluoro-3-methyl-1H-indazole-5-carboxamide, trifluoroacetic acid salt] | 110 | 20 |  | 4800 |
| Cc1nn(CC2CN(C(c3ccccc3)c3ccccc3)C2)c2cc(F)c(C(=O)NS(C)(=O)=O)cc12 [Example 23, 1-((1-benzhydrylazetidin-3-yl)methyl)-6-fluoro-3-methyl-N-(methylsulfonyl)-1H-indazole-5-carboxamide] | 550 | 280 | ≥ 30000 |  |
| Cc1nn(C2CN(C(c3ccccc3)c3ccccc3)C2)c2cc(F)c(C(=O)NS(C)(=O)=O)cc12 [Example 24, 1-(1-benzhydrylazetidin-3-yl)-6-fluoro-3-methyl-N-(methylsulfonyl)-1H-indazole-5-carboxamide] | 87 | 48 |  | 8600 |
| Cc1nn(C2CCC(C(C)C)CC2)c2cc(F)c(C(=O)NS(C)(=O)=O)cc12 (stereo not drawn) [Example 33, 6-fluoro-1-(4-isopropylcyclohexyl)-3-methyl-N-(methylsulfonyl)-1H-indazole-5-carboxamide] | 79 | 20 |  | 20000 |
| Cc1nn(C23CC4CC(CC(C4)C2)C3)c2cc(F)c(C(=O)NS(=O)(=O)N3CCC3)cc12 [Example 35, 1-((3s,5s,7s)-adamantan-1-yl)-N-(azetidin-1-ylsulfonyl)-6-fluoro-3-methyl-1H-indazole-5-carboxamide] | 1000 | 180 | ≥ 30000 |  |
| Cc1nn(C23CC4CC(CC(C4)C2)C3)c2cc(F)c(C(=O)NS(C)(=O)=O)cc12 [Example 36, 1-((3s,5s,7s)-adamantan-1-yl)-6-fluoro-3-methyl-N-(methylsulfonyl)-1H-indazole-5-carboxamide] | 3100 | 370 | ≥ 30000 |  |
| Cc1nn(C2CCCCC2)c2cc(F)c(C(=O)NS(=O)(=O)N3CCC3)cc12 [Example 37, N-(azetidin-1-ylsulfonyl)-1-cyclohexyl-6-fluoro-3-methyl-1H-indazole-5-carboxamide] | 3600 | 490 | ≥ 30000 |  |
| Cc1nn(C2CCCCC2)c2cc(F)c(C(=O)NS(C)(=O)=O)cc12 [Example 38, 1-cyclohexyl-6-fluoro-3-methyl-N-(methylsulfonyl)-1H-indazole-5-carboxamide] | 11000 | 1000 | ≥ 30000 |  |
| Cc1nn(-c2cnc(OCC(C)C)c(Cl)c2)c2cc(F)c(C(=O)NS(C)(=O)=O)cc12 [Example 39, 1-(5-chloro-6-isobutbxypyridin-3-yl)-6-fluoro-3-methyl-N-(methylsulfonyl)-1H-indazole-5-carboxamide] | 39 | 8 | ≥ 30000 |  |
| Cc1nn(CC23CC4CC(CC(C4)C2)C3)c2cc(F)c(C(=O)N[S@TB2](C)(=O)=O)cc12 [Example 40, 1-(((1s,3s)-adamantan-1-yl)methyl)-6-fluoro-3-methyl-N-(methylsulfonyl)-1H-indazole-5-carboxamide] | 1200 | 410 | ≥ 30000 |  |
| Cc1nn(CC23CC4CC(CC(C4)C2)C3)c2cc(F)c(C(=O)N[S@TB3](=O)(=O)N3CCC3)cc12 [Example 41, 1-(((1s,3s)-adamantan-1-yl)methyl)-N-(azetidin-1-ylsulfonyl)-6-fluoro-3-methyl-1H-indazole-5-carboxamide] | 3400 | 300 | ≥ 30000 |  |
| Cc1nn(-c2cnc(OCC(C)C)c(Cl)c2)c2cc(F)c(C(=O)NS(=O)(=O)N3CCC3)cc12 [Example 42, N-(azetidin-1-ylsulfonyl)-1-(5-chloro-6-isobutoxypyridin-3-yl)-6-fluoro-3-methyl-1H-indazole-5-carboxamide] | 71 | 7 | ≥ 30000 |  |
